According to patent US4690940A, “Anti-hypertensive agents” (University of Miami, priority 1979, dated 1987):
Non-standard residues stand in square brackets, D forms with d. Residues, ends and D or L forms follow the SMILES beside them. No end group written: not given here. pGlu = O=C1CC[C@@H](C(=O)O)N1

Key:
[1] = system: ACE; settings: competitive substrates; cited from earlier work
[2] = system: ACE purified from human urine; experiment: ACE activity assay (hydrolysis of Benzoyl-GlyHisLeu), I50 determination; type: biochemical; settings: in vitro, pH 8.0, 37° C
Method: These factors include the source of enzyme, its purity, the substrate used and its concentration, and the composition of the assay buffer. All I50 data reported herein have been performed with the same assay system and same enzyme (human urinary ACE) and with an approximately 1/2Km level of substrate and are therefore internally consistent.
ACE activity assay. […] To initiate the assay, 40 μl of enzyme and 10 μl of water or inhibitor dissolved in water were preincubated for five minutes at 37° C. […] To terminate the reaction, 1 ml of 0.1M HCl was added, following which 1 ml of ethyl acetate was added. The mixture was agitated on a rotary mixer and centrifuged briefly to separate the phases.
An aliquot, 500 μl, of the ethyl acetate layer was transferred to a liquid scintillation vial containing 10 ml of Riafluor, trademark New England Nuclear Corporation, Boston, Massachusetts. For determination of I50 values, enzyme activity in the presence of inhibitor at a series of different concentrations was compared to activity in the absence of inhibitor.

[3] = system: ACE; settings: disulfide formed by dimerization of SQ 14,225; believed; cited from earlier work
[4] = system: Blood Pressure Response to 400 ng/kg of Angiotensin I; experiment: Oral effectiveness: blood pressure response to angiotensin I in anesthetized rats; type: in vivo, rat; settings: 400 ng/kg angiotensin I, before drug
Method: (§1) Rats (210-290 g body weight) were fasted overnight and then anesthetized with intraperitoneal pentobarbital, 50-60 mg/kg. Tracheostomy was performed and the animals were ventilated mechanically. A cannula was inserted into a femoral vein for injection of angiotensin I, and a second cannula was inserted into a common carotid artery for direct measurement of arterial blood pressure. Heparin, 1,000 units, was injected via the femoral vein to prevent coagulation. Blood pressure was measured with a pressure transducer connected to a polygraph. The rats were injected with 400 ng/kg of angiotensin I in 20 μl of 0.9 g % NaCl; an amount of angiotensin I sufficient to raise mean arterial blood pressure by 39 mm Hg. […] At timed intervals, the effects of 400 ng/kg of angiotensin I on mean arterial blood pressure were tested.

[5] = system: Blood Pressure Response to 400 ng/kg of Angiotensin I; experiment: Intravenous effectiveness: blood pressure response to angiotensin I in anesthetized rats; type: in vivo, rat; settings: 400 ng/kg angiotensin I, -5 minutes
Method: as §1
At time intervals, the effects of angiotensin I, 400 ng/kg, on mean arterial blood pressure were tested.

Compound | Km relative to angiotensin I [1] | IC50 [2] [nM] | further results
C[C@H](NC(=O)[C@H](Cc1c[nH]c2ccccc12)NC(=O)[C@H](CCCCN)NC(=O)[C@@H]1CCC(=O)N1)C(=O)N1CCC[C@H]1C(=O)O [BPP5a, <GluLysTrpAlaPro] ([pGlu]KWAP-OH) | a lower Km than angiotensin I |  | 
C[C@H](CSC(=O)[C@H](Cc1ccccc1)NC(=O)[C@H](CCCCNC(=O)OC(C)(C)C)NC(=O)C1CCCC1)C(=O)N1CCC[C@H]1C(=O)O [Example 17] |  | 25 | 
C[C@H](CSC(=O)[C@H](Cc1ccccc1)NC(=O)[C@H](CCCCN)NC(=O)C1CCCC1)C(=O)N1CCC[C@H]1C(=O)O [Example 18, N^α -[3-(N^α -cyclopentylcarbonyl-L-lysyl-L-phenylalanylthio)2-D-methylpropanoyl]-L-proline] |  | 15 | 
C[C@H](CSSC[C@@H](C)C(=O)N1CCC[C@H]1C(=O)O)C(=O)N1CCC[C@H]1C(=O)O [disulfide] |  |  | inhibitory activity of dimer [3]: largely inactive as an inhibitor
DRVYIHPFHL [angiotensin I] |  |  | rise of mean arterial blood pressure by angiotensin I [4]: 39 mm Hg; rise of mean arterial blood pressure by angiotensin I [5]: 39 mm Hg
RPPGFSPFR [bradykinin] | a lower Km than angiotensin I |  | 
